Measured values: ChEMBL document CHEMBL1649229, “Efficacy of high doses of daptomycin versus alternative therapies against experimental foreign-body infection by methicillin-resistant Staphylococcus aureus” (Antimicrob Agents Chemother, 2009)
In brackets after ≈: the same amount, converted by molar mass.

Key:
Type in all cases: functional
[1] = system: Staphylococcus aureus; test: Antimicrobial activity against methicillin-resistant Staphylococcus aureus HUSA 304 infected in Wistar rat assessed as decrease in bacterial load in tissue cage fluid at 35 mg/kg, ip administered every 12 hrs for 7 days measured on day 8 post treatment; conditions: route intraperitoneal
[2] = system: Staphylococcus aureus; test: Antimicrobial activity against log-phase methicillin-resistant Staphylococcus aureus HUSA 304 by M7-A6 method
[3] = system: Staphylococcus aureus; test: Bactericidal activity against stationary-phase methicillin-resistant Staphylococcus aureus HUSA 304 after 24 hrs by time kill analysis in presence of 50 mg/L calcium ions; conditions: HUSA 304, 24 h
[4] = system: Staphylococcus aureus; test: Antimicrobial activity against methicillin-resistant Staphylococcus aureus HUSA 304 infected in Wistar rat assessed as decrease in bacterial load in tissue cage fluid at 35 mg/kg, ip administered every 12 hrs for 7 days measured on day 11 post treatment; conditions: route intraperitoneal
[5] = system: Staphylococcus aureus; test: Bactericidal activity against log-phase methicillin-resistant Staphylococcus aureus HUSA 304 after 24 hrs by time kill analysis in presence of 50 mg/L calcium ions; conditions: HUSA 304, 24 h

| Compound | log10cfu [1] | MIC [2] [µg/mL] | MBC [3] [µg/mL] | log10cfu [4] | MBC [5] [µg/mL] |
| --- | --- | --- | --- | --- | --- |
| CO[C@H]1/C=C/O[C@@]2(C)Oc3c(C)c(O)c4c(O)c(c(/C=N/N5CCN(C)CC5)c(O)c4c3C2=O)NC(=O)/C(C)=C\C=C\[C@H](C)[C@H](O)[C@@H](C)[C@@H](O)[C@@H](C)[C@H](OC(C)=O)[C@@H]1C [RIFAMPIN] | 1.36 | 0.03 (≈ 0.0365 µM) | > 8 | 1.1 | 0.5 |
| CN[C@H](CC(C)C)C(=O)N[C@H]1C(=O)N[C@@H](CC(N)=O)C(=O)N[C@H]2C(=O)N[C@H]3C(=O)N[C@H](C(=O)N[C@H](C(=O)O)c4cc(O)cc(O)c4-c4cc3ccc4O)[C@H](O)c3ccc(c(Cl)c3)Oc3cc2cc(c3O[C@@H]2O[C@H](CO)[C@@H](O)[C@H](O)[C@H]2O[C@H]2C[C@](C)(N)[C@H](O)[C@H](C)O2)Oc2ccc(cc2Cl)[C@H]1O [VANCOMYCIN] |  |  | > 32 |  | 4 |
